Measured values reported in patent publication US11827624B2, “Covalent immune recruiter compounds for immune cell recognition and associated uses” (McMaster University, priority 2020, dated 2023).

What was measured:
PSMA+HEK cells [1] = experiment: Two-color flow cytometry ADCP (CD64) assay with mAb on PSMA+HEK cells; type: cell-based, human
From the text: ADCP flow cytometry experiments were run on a BD LSRII Flow Cytometer. The human IgG isotype control used was purchased from Jackson ImmunoResearch (009-000-003). The human IgG1 monoclonal anti-DNP antibody (mAb) was purchased from acrobiosystems (DNP-M2). PSMA expression was confirmed with an anti-PSMA antibody Alexa 647 conjugate (Novus Biologicals, Catalog #FAB4234R). For PSMA competition controls, PMPA was purchased from Sigma (SML1612). Hek-293T (PSMA+/−) cell lines were generously given by Dr. Cyril Barinka (Institute of Biotechnology CAS, Czech Republic). U937 cells were generously given by Dr. John Valliant (McMaster University, Canada). LNCaP cells were generously given by Dr. Karen Mossman (McMaster University, Canada). IFN-γ was purchased from Fischer Scientific (PHC4031). Ultra low IgG FBS was purchased from Fischer Scientific (A3381901). RPMI-1640 was purchased as a powder from Fischer Scientific (31800089) and resuspended. DMEM was purchased as a powder from Fischer Scientific (12800082) and resuspended. […]
For preparation of effector monocytes, 24 hours prior to inducing phagocytosis U937 monocytes were seeded at 500,000 cells/mL and activated with IFN-γ ([…]). After incubation, these cells were then counted and washed twice with serum free assay media (neat RPMI). […] These cells were then counted and washed twice with serum free assay media (neat RPMI). […]

PSMA+HEK cells [2] = experiment: CD16α activation assay with pan human IgG as source of sAb; type: cell-based; settings: pan IgG 230 μM, ~10 nM anti-DNP IgG
Protocol: Preparation of antibody-CIR/ARM stocks were mixed overnight prior to addition to the ADCC plate. In the case of mmAb and mAb, incubation was carried out at 600 nM antibody and 1.2 μM CIR or ARM. In the case of IgG from serum, incubation was completed at 230 μM antibody and 8.7 μM CIR or ARM. In all cases, DMSO was kept close to 1%. After the overnight incubation, a dilution series was completed on the antibody-CIR/ARM stocks in RPMI (1% DMSO). Target cells were seeded at a density of 2.5×10^4 cells per well in opaque 96 well flat-bottom plates (Corning Costar, 3917) in complete media. Sixteen hours after seeding, cells were washed gently with 100 μL of neat RPMI. To the cells, 25 μL of RPMI supplemented with 4% ultra-low IgG FBS was added followed by 25 μL of antibody+/−CIR/ARM conditions described above. After a 30-minute incubation, 25 μL of supplemented RPMI containing 7.5×10^4 Jurkat effector cells expressing human FcgRIlla (CD16) were added to each well. The plates were then incubated for 6 additional hours. 75 μL of Bio-Glo Luciferase Assay Reagent was added to each well, and luminescence was quantified using the SpectraMax i3 plate reader.
Depleted serum IgG is derived from pan serum human IgG passed through DNP coated beads to remove endogenous anti-DNP IgG. […]

With `O=C(O)CC[C@H](NC(=O)N[C@@H](CCCCNC(=O)NCCOCCOCCOCCOCCOCCOCCOCCOC(=O)n1cnc(CCNC(=O)CNc2ccc([N+](=O)[O-])cc2[N+](=O)[O-])c1)C(=O)O)C(=O)O` [CIR 3] the “CD64 based target immune recognition (phagocytosis)” value (PSMA+HEK cells [1]) was “substantial functional enhancement relative to ARM 11 across all antibody concentrations tested” and the CD16α activation (PSMA+HEK cells [2]) was “mediated efficient CD16α activation”.
